Measured values taken from patent US20240197738A1, “COMPOUND 7AI IN TREATING EWING SARCOMA BY INHIBITING OTUD7A” (The University of North Carolina at Chapel Hill, priority 2021, published 2024).

How the values were obtained:
MHH-ES-1 cells = assay: 2D colony formation assay, MHH-ES-1; format: cell-based, human; conditions: MHH-ES-1, 2-week treatment (FIG. 5J)
Procedure: (§1) Indicated cells were seeded into 6-well plates (300 or 600 cells/well) or 6 cm dishes (500 or 1,000 cells/dish) and cultured in 37° C. incubator with 5% C02 for ˜14 days (as indicated in figure legends) until formation of visible colonies. Colonies were washed with 1×PBS and fixed with 10% acetic acid/10% methanol for 30 min, stained with 20% acidic acid/10% Methanol with 0.1% crystal violet until colonies were visibly stained. Colonies were then washed by tap water and air-dried. Colony numbers were manually counted. At least two independent experiments were performed to generate the error bars.

A673 cells = assay: 2D colony formation assay, A673; format: cell-based, human; conditions: A673, 2-week treatment
Procedure: as §1

## Cn1nccc1-c1cc(-c2ccnn2C)n2nc(C(=O)Nc3cnn(Cc4c(Cl)cccc4Cl)c3)cc2n1 [7Ai]
MHH-ES-1 cells
  colony formation ability: reduced colony formation ability
A673 cells
  colony formation ability: reduced colony formation ability
